Experiments:
Format in all cases: in vivo
[1] = system: larvae of the mustard beetle (Phaedon cochleariae); experiment: Phaedon cochleariae larvae test (sprayed cabbage leaves populated with larvae); details: 4 ppm, spray
Source text: (§1) The expected action for a given combination of two active ingredients can be calculated according to S. R. Colby, Weeds 15 (1967), 20-22) as follows:
(§2) • X is the kill rate, expressed in % of the untreated control, using the active ingredient A at an application rate of m g/ha or in a concentration of m ppm, • Y is the kill rate, expressed in % of the untreated control, using the active ingredient B at an application rate of n g/ha or in a concentration of n ppm, • E is the kill rate, expressed in % of the untreated control, using the active ingredients A and B at application rates of m and n g/ha or in a concentration of m and n ppm, then is
(§3) If the actual insecticidal kill rate is greater than that calculated, the kill rate of the combination is superadditive, i.e. there is a synergistic effect. In this case, the actually observed kill rate must be greater than the value calculated from the above formula for the expected kill rate (E).
Solvent: 7 parts by weight of dimethylformamide Emulsifier: 2 parts by weight of alkyl aryl polyglycol ether
(§4) To produce an appropriate active ingredient formulation, 1 part by weight of active ingredient is mixed with the stated amounts of solvent and emulsifier, and the concentrate is diluted with emulsifier-containing water to the desired concentration.
Cabbage leaves (Brassica oleracea) are treated by spraying with the active ingredient formulation of the desired concentration and populated with larvae of the mustard beetle (Phaedon cochleariae) while the leaves are still moist.
After the desired time, the kill rate in % is determined 100% means that all beetle larvae have been killed; 0% means that none of the beetle larvae have been killed. The kill rates determined are entered into Colby's formula.

[2] = system: green peach aphid (Myzus persicae); experiment: Myzus persicae test (spray treatment of infested cabbage leaves)
Source text: as §1, §2, §3
Solvent: 7 parts by weight of dimethylformamide Emulsifier: 2 parts by weight of alkylaryl polyglycol ether
as §4
Cabbage leaves (Brassica oleracea) severely infested by the green peach aphid (Myzus persicae) are treated by spraying with the active ingredient formulation in the desired concentration.
(§5) After the desired time, the kill rate in % is determined 100% means that all of the aphids have been killed; 0% means that none of the aphids have been killed. The kill rates determined are entered into Colby's formula.

[3] = system: cotton aphid (Aphis gossypii); experiment: Aphis gossypii test (spray treatment of infested cotton plants)
Source text: as §1, §2, §3
Solvent: 7 parts by weight of dimethylformamide Emulsifier: 2 parts by weight of alkylaryl polyglycol ether […]
as §5

Row | SMILES | Kill rate in % after 6 days [1] | Kill rate in % after 6 days ([2]; 0.8 ppm) | Kill rate in % after 1 d ([2]; 0.8 ppm) | Kill rate in % after 6 days ([3]; 0.8 ppm) | Kill rate in % after 1 d ([2]; 0.16 ppm) | Kill rate in % after 6 days ([3]; 0.16 ppm)
1 | C/C(=N\C#N)N(C)Cc1ccc(Cl)nc1 [acetamiprid] | 0% | 0% | – | – | – | –
2 | N#C/N=C1\SCCN1Cc1ccc(Cl)nc1 [thiacloprid] | 0% | – | 25% | 25% | – | –
3 | CC1(C)[C@H](C=C(Cl)Cl)[C@H]1C(=O)OCc1c(F)c(F)cc(F)c1F [transfluthrin] | 0% | 0% | – | – | 0% | 0%
